In PubChem BioAssay AID248 (DTP/NCI, 2004):
Toxic doses and inconclusive results are not listed. Rule as the data show it: active = T/C of 150% or more; inactive = T/C below 125%.

System: L1210 leukemia ip in BDF1 mice, survival T/C
Assay: NCI In Vivo Anticancer Drug Screen. Data for tumor model L1210 Leukemia (intraperitoneal) in B6D2F1 (BDF1) mice
Conditions: endpoint: mean survival time, higher = longer survival
In short: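 Transplanted-tumor mice were given test agent; controls received vehicle only. Survival readings from the two groups were divided (treated over control).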

[1] = dose: 100.0 mg/kg/injection, schedule: Q01DX009 (ip), vehicle: saline with Tween-80
[2] = dose: 100.0 mg/kg/injection, schedule: Q01DX009 (ip), vehicle: saline
[3] = dose: 100.0 mg/kg/injection, schedule: Q01DX009 (ip), vehicle: Klucel (hydroxypropylcellulose) (HPC)
[4] = dose: 200.0 mg/kg/injection, schedule: Q01DX009 (ip), vehicle: Klucel (hydroxypropylcellulose) (HPC)
[5] = dose: 400.0 mg/kg/injection, schedule: Q01DX009 (ip), vehicle: Klucel (hydroxypropylcellulose) (HPC)
[6] = dose: 100.0 mg/kg/injection, schedule: Q01DX001 (ip), vehicle: saline
[7] = dose: 200.0 mg/kg/injection, schedule: Q01DX001 (ip), vehicle: saline
[8] = dose: 400.0 mg/kg/injection, schedule: Q01DX001 (ip), vehicle: saline
[9] = dose: 100.0 mg/kg/injection, schedule: Q04DX003 (ip), vehicle: saline
[10] = dose: 200.0 mg/kg/injection, schedule: Q04DX003 (ip), vehicle: saline
[11] = dose: 400.0 mg/kg/injection, schedule: Q04DX003 (ip), vehicle: saline
[12] = dose: 100.0 mg/kg/injection, schedule: Q04DX002 (ip), vehicle: Klucel (hydroxypropylcellulose) (HPC)
[13] = dose: 200.0 mg/kg/injection, schedule: Q01DX009 (ip), vehicle: saline

Measured: T/C

O=[N+]([O-])c1ccc(/C=N/c2ncc(Br)s2)o1
inactive: dose: 50.0 mg/kg/injection, schedule: Q01DX009 (ip), vehicle: saline with Tween-80 102 % of control | [1] 98 % of control | dose: 100.0 mg/kg/injection, schedule: Q04DX003 (ip), vehicle: saline with Tween-80 111 % of control | dose: 200.0 mg/kg/injection, schedule: Q04DX003 (ip), vehicle: saline with Tween-80 111 % of control

O=C1Cc2ccccc2CN1
inactive: dose: 75.0 mg/kg/injection, schedule: Q01DX001 (ip), vehicle: acetone 100 % of control | dose: 150.0 mg/kg/injection, schedule: Q01DX001 (ip), vehicle: acetone 97 % of control

CC1(C)N=C(N)N=C(N)N1c1ccc(CCCCc2ccc(S(=O)(=O)F)cc2)cc1
inactive: dose: 50.0 mg/kg/injection, schedule: Q01DX009 (ip), vehicle: saline 113 % of control | [2] 106 % of control

COc1cc(NC(=O)Nc2ccc(Cl)cc2[N+](=O)[O-])c(OC)cc1Cl
inactive: [3] 94 % of control | [4] 94 % of control | [5] 89 % of control

CCCCCCCCCCCC(=O)N(C)CC(=O)O
inactive: [6] 96 % of control

O=C(Nc1ccccc1)OC1CCCC2CCC21 (stereo not drawn)
inactive: [6] 97 % of control | [7] 90 % of control | [8] 90 % of control

Cc1ccccc1C(c1ccccc1)C(CC(=O)O)CC(=O)O (stereo not drawn)
inactive: [1] 96 % of control | dose: 100.0 mg/kg/injection, schedule: Q04DX003 (ip), vehicle: other 100 % of control | dose: 200.0 mg/kg/injection, schedule: Q01DX009 (ip), vehicle: saline with Tween-80 95 % of control | dose: 200.0 mg/kg/injection, schedule: Q04DX003 (ip), vehicle: other 103 % of control | dose: 400.0 mg/kg/injection, schedule: Q01DX009 (ip), vehicle: saline with Tween-80 93 % of control | dose: 400.0 mg/kg/injection, schedule: Q04DX003 (ip), vehicle: other 106 % of control

[I][Bi]([I])[I]
inactive: dose: 50.0 mg/kg/injection, schedule: Q01DX001 (ip), vehicle: carboxymethylcellulose (CMC) 114 % of control | dose: 100.0 mg/kg/injection, schedule: Q01DX001 (ip), vehicle: carboxymethylcellulose (CMC) 105 % of control | [6] 108 % of control | dose: 200.0 mg/kg/injection, schedule: Q01DX001 (ip), vehicle: carboxymethylcellulose (CMC) 102 % of control | [7] 94 % of control | [8] 97 % of control

C/C=C(\C)C(=NC)Nc1ccc(Cl)c(Cl)c1
inactive: dose: 222.0 mg/kg/injection, schedule: Q01DX Z (ip), vehicle: methylcellulose (MC) 94 % of control | dose: 333.0 mg/kg/injection, schedule: Q01DX Z (ip), vehicle: methylcellulose (MC) 90 % of control

COc1ccc(NC(=O)OC/C=C/c2ccccc2)c(OC)c1
inactive: [3] 90 % of control | [4] 87 % of control

CCOc1cc([N+](=O)[O-])c(OCC)cc1C#N
inactive: dose: 5.0 mg/kg/injection, schedule: Q01DX001 (ip), vehicle: other 106 % of control | dose: 10.0 mg/kg/injection, schedule: Q01DX001 (ip), vehicle: other 90 % of control | dose: 20.0 mg/kg/injection, schedule: Q01DX001 (ip), vehicle: other 93 % of control

O=C(O)CCC(NC(=O)c1ccccc1)C(=O)O (stereo not drawn)
inactive: [9] 100 % of control | [10] 95 % of control | [11] 95 % of control

OCCN1CC1
inactive: dose: 1.0 mg/kg/injection, schedule: Q01DX009 (ip), vehicle: saline 92 % of control | dose: 1.56 mg/kg/injection, schedule: Q01DX009 (ip), vehicle: saline 100 % of control | dose: 2.3 mg/kg/injection, schedule: Q01DX009 (ip), vehicle: saline 96 % of control | dose: 3.12 mg/kg/injection, schedule: Q01DX009 (ip), vehicle: saline 120 % of control | dose: 6.25 mg/kg/injection, schedule: Q01DX009 (ip), vehicle: saline 94 % of control

CN(Cc1cc(Cl)cc(Cl)c1O)C1CC2CCC1(C)C2(C)C (stereo not drawn)
inactive: dose: 25.0 mg/kg/injection, schedule: Q04DX002 (ip), vehicle: Klucel (hydroxypropylcellulose) (HPC) 96 % of control | dose: 50.0 mg/kg/injection, schedule: Q04DX002 (ip), vehicle: Klucel (hydroxypropylcellulose) (HPC) 103 % of control | [3] 90 % of control | [12] 92 % of control | [4] 88 % of control | [5] 103 % of control

CCCCCCCCCCc1nc(N)nc(NCCc2ccccc2)n1
inactive: [12] 106 % of control | dose: 200.0 mg/kg/injection, schedule: Q04DX002 (ip), vehicle: Klucel (hydroxypropylcellulose) (HPC) 89 % of control | dose: 400.0 mg/kg/injection, schedule: Q04DX002 (ip), vehicle: Klucel (hydroxypropylcellulose) (HPC) 100 % of control

NS(=O)(=O)Cl
inactive: dose: 100.0 mg/kg/injection, schedule: Q01DX009 (sc), vehicle: olive oil, sesame oil, peanut oil 98 % of control | dose: 100.0 mg/kg/injection, schedule: Q04DX003 (sc), vehicle: olive oil, sesame oil, peanut oil 102 % of control | dose: 200.0 mg/kg/injection, schedule: Q01DX009 (sc), vehicle: olive oil, sesame oil, peanut oil 100 % of control | dose: 200.0 mg/kg/injection, schedule: Q04DX003 (sc), vehicle: olive oil, sesame oil, peanut oil 103 % of control | dose: 400.0 mg/kg/injection, schedule: Q01DX009 (sc), vehicle: olive oil, sesame oil, peanut oil 95 % of control | dose: 400.0 mg/kg/injection, schedule: Q04DX003 (sc), vehicle: olive oil, sesame oil, peanut oil 108 % of control

CCCCCCCCCCOC(=O)COc1ccc(C(C)(C)C)cc1
inactive: [2] 92 % of control | [13] 98 % of control

CCOc1cc(N2CCOCC2)c(OCC)cc1N
inactive: dose: 6.0 mg/kg/injection, schedule: Q01DX009 (ip), vehicle: saline 103 % of control | dose: 12.0 mg/kg/injection, schedule: Q01DX009 (ip), vehicle: saline 100 % of control | dose: 12.0 mg/kg/injection, schedule: Q04DX003 (ip), vehicle: other 100 % of control | dose: 25.0 mg/kg/injection, schedule: Q01DX009 (ip), vehicle: saline 94 % of control | dose: 25.0 mg/kg/injection, schedule: Q04DX003 (ip), vehicle: other 95 % of control

CCN(CC)CCN(C)c1cc(C)nc(/N=C(\N)Nc2ccc(Cl)c(Cl)c2)n1
inactive: dose: 18.75 mg/kg/injection, schedule: Q01DX009 (ip), vehicle: saline with Tween-80 92 % of control | dose: 37.5 mg/kg/injection, schedule: Q01DX009 (ip), vehicle: saline with Tween-80 103 % of control | dose: 37.5 mg/kg/injection, schedule: Q04DX003 (ip), vehicle: saline with Tween-80 93 % of control | dose: 75.0 mg/kg/injection, schedule: Q01DX009 (ip), vehicle: saline with Tween-80 92 % of control | dose: 75.0 mg/kg/injection, schedule: Q04DX003 (ip), vehicle: saline with Tween-80 97 % of control

CCOc1ccc(Br)cc1/C=C/C(C)=O
inactive: [2] 103 % of control | [9] 95 % of control | [13] 98 % of control | [10] 111 % of control | dose: 400.0 mg/kg/injection, schedule: Q01DX009 (ip), vehicle: saline 90 % of control | [11] 97 % of control

CC(C)COC1CCCC(Oc2ccccc2)O1 (stereo not drawn)
inactive: dose: 55.0 mg/kg/injection, schedule: Q01DX Z (ip), vehicle: methylcellulose (MC) 92 % of control | dose: 83.0 mg/kg/injection, schedule: Q01DX Z (ip), vehicle: methylcellulose (MC) 100 % of control | dose: 125.0 mg/kg/injection, schedule: Q01DX Z (ip), vehicle: methylcellulose (MC) 91 % of control
